Data: patent US10370378B2, “Treatment of sleep disorders” (Evotec International GmbH, priority 2007, dated 2019)
Marks after values point to notes of the source that are not given here.

Experiments:
Type in all cases: in vivo, human
[1] = Example 2: single and repeat dose pharmacokinetic, safety and pharmacodynamic study; conditions: healthy volunteers, oral
Description: A single and repeat dose pharmacokinetic safety and pharmacodynamic study of the effects of the compound of formula (II) was conducted using healthy volunteers. The compound of formula (II) in free base form was administered orally in 1 mg, 1.5 mg, 2 mg and 2.5 mg doses via a hard gelatine capsule containing the compound in powder form.

[2] = test system: healthy volunteers subjected to road traffic noise; assay: Example 1: placebo controlled cross-over study, road noise model
Description: A placebo controlled, randomized, double-blind, cross-over study of the effects of the compound of formula (II) was conducted using a road noise model using 12 healthy volunteers. Specifically, the volunteers were subjected to road traffic noise to imitate the effects of insomnia, and the medication was orally administered 5 minutes before the 11 pm bed time in 1.0 mg, 1.5 mg, 2 mg and 2.5 mg doses in the form of a hard gelatine capsule containing the powdered compound of formula (II) in free base form. Measurements were then taken at 8, 10 and 12 hours after dosing.

[3] = test system: primary insomnia in adult patients; assay: Example 3: placebo-controlled crossover study in primary insomnia, adult patients younger than 65 (PSG, patient reports, DSST, safety); conditions: for Number of Patients with Any Event / Number of Patients with Headache / Number of Patients with Somnolence: number (percent)
Description: A randomized, multicenter, double-blind, placebo-controlled crossover study was conducted to assess the efficacy of the 1.5 mg and 2.5 mg doses of the compound of formula (II) in the treatment of primary insomnia in adult patients. Specifically, one of the objectives of the study was to asses the efficacy of 1.5 mg and 2.5 mg doses on PSG and patient-reported measures of sleep. Also, the study was aimed at assessing the safety of 1.5 mg and 2.5 mg doses.
The study in this Example was performed for two consecutive nights with a 5-12 day washout between each period. The dosing was conducted 30 minutes before lights were turned out for the night via oral administration of a hard gelatine capsule containing the compound of formula (II) (free base) in powder form. PSG was taken for 8 hours from “lights out” on nights 1 and 2 of each treatment period. Centralized scoring of PSG was used. Testing for residual effects using the Digit Symbol Substitution Test (DSST) was performed at least 30 minutes after wake time (9 hours post dose).
The study was conducted using 67 subjects younger than 65 years of age (21 males, 46 females; mean age 45.1 yrs, range 23-64 yrs) with a documented diagnosis of primary insomnia (DSM-IV criteria). These subjects' typical bed time was between 9 pm and 1 am with at least 7 hours in bed. These subjects reported sleep latency of at least 45 minutes and TST of not more than 6.5 hours in a sleep diary for at least 3 of 7 nights.
Mean WASO of the patients was at least 40 minutes and mean TST was 240-420 minutes.

[4] = test system: primary insomnia, subjects at least 65 years old; assay: Example 4: placebo-controlled parallel group study, 7 nights dosing, elderly subjects with primary insomnia; conditions: for Number of subjects with any event (%): number (percent); for Adjusted mean LPS / Adjusted mean TST / Adjusted mean WASO: PSG, average of nights 1, 6 and 7; for LPS % change from placebo / WASO % change from placebo: decrease; for TST % change from placebo: increase
Description: A randomized, double-blind, placebo-controlled parallel group design was used to assess the hypnotic efficacy of 1.5 mg and 2.5 mg doses of the compound of formula (II) following 7 nights dosing using 149 subjects. The study was conducted in 20 sleep laboratories in the United States using both objective and subjective measures. PSG data was collected on nights 1, 6 and 7 and results are based on the mean data from these three nights. The compound of formula (II) was administered in free base form as a powder in a capsule.
The subjects were males and females at least 65 years old with a documented diagnosis of primary insomnia (DSM-IV criteria). These subjects' typical bed time was between 9 pm and 1 am with at least 7 hours in bed. These subjects reported five nights or more in seven days with TST of not more than 6.5 hours with at least 7 hours in bed. […] On screening using PSG for 2 nights, mean TST was 240-420 minutes. Mean latency in Multiple Sleep Latency Test (MSLT) was at least 5.5 minutes and not more than 14 minutes.
PSG was used to obtain TST (average of nights 1, 6 and 7). The daytime function (day 8) was measured using Psychomotor Vigilance Task (PVT), MSLT (MSLT Clinical Guidelines; Sleep, 1(3): 260-276 (1992)), Karolinska Sleepiness Scale (KSS); and objective measures Rey Auditory Verbal Learning Test (RAVLT) (day 8) (assessed 30±10 minutes after lights-on). Sleep architecture, subject reported sleep variables and categorical rating of sleep quality and safety endpoints including the Benzodiazepine Withdrawal Questionnaire were also determined.

[5] = 1.5, 2.0 & 2.5 mg oral, objective
[6] = all 4 doses (1.0, 1.5, 2, 2.5 mg)
[7] = all 4 doses, objective residual effects
[8] = 1.5 mg and 2.5 mg, across 7 nights

In the case of `CN(C)Cc1nc(-c2ncn3c2CN(C)C(=O)c2c(Cl)cccc2-3)no1` [compound of formula (II), 7-chloro-3-(5-dimethylaminomethyl-[1,2,4]oxadiazol-3-yl)-5-methyl-4,5-dihydro-imidazo[1,5-a][1,4]benzodiazepine-6-one], the “effect of food on the extent of absorption” value [1] is reported as “little or no effect”, the “pharmacokinetic profile on day 14 after repeat dosing compared to day 1” value [1] is reported as “no significant differences” and the “Subjective assessment (LARS): Coordination” value ([2]; 2.5 mg) is reported as “No impairment”. The “Subjective assessment (LARS): Mood” value ([2]; 2.5 mg) was “No impairment”, the “Subjective assessment (LARS): Sedation” value ([2]; 2.5 mg) was “No impairment” and the “WASO, 2nd half (hrs 5-8)” value [2, 5] was “Significantly reduced”. For the same molecule, the “WASO, full night (hrs 0-8)” value [2, 5] was “Significantly reduced”, the “Sleep Efficiency Index” value ([2]; 2.0 & 2.5 mg oral, objective) was “Significantly improved” and the TST ([2]; 2.0 & 2.5 mg oral, objective) was “Significantly improved”. The “Performance on any of the cognitive or psychomotor tests” value ([2]; 8 to 12 hours after dose, data corrected for multiple comparisons) was “no impairment”, the “Choice Reaction Time - Motor Component” value ([2]; all 4 doses) was “No effect (all 4 doses)” and the “Critical Flicker Fusion Test” value ([2]; all 4 doses) was “No effect (all 4 doses)”. The “Word Recall - delayed (WRd)” value ([2]; all 4 doses) was “No effect (all 4 doses)”, the “SWS (% and duration)” value [2, 6] was “Significantly increased” and the “Stage IV Sleep (% and duration)” value [2, 6] was “Significantly increased”. For the same molecule, the “Leeds Sleep Evaluation Questionnaire: Getting to sleep” value ([2]; all 4 doses, model considered nondiscriminant for sleep onset) was “(No effect to all 4 doses)*”, the “Rapid Visual Information Processing” value [2, 7] was “No effect (all 4 doses)” and the “Sustained Attention to Response (SART)” value [2, 7] was “No effect (all 4 doses)”. The “Leeds Sleep Evaluation Questionnaire: Early morning behaviour (clumsiness & tiredness)” value ([2]; all 4 doses, subjective) was “No effect (all 4 doses)”, the “Leeds Sleep Evaluation Questionnaire: Ease of awakening” value ([2]; all 4 doses, subjective) was “No effect (all 4 doses)” and the “Sternberg Memory Task (STM)” value ([2]; at 8 or 12 h, all 4 doses) was “No effect at 8 or 12 h (all 4”. The “Continuous Tracking Task - reaction time” value ([2]; at 10 or 12 h, all 4 doses) was “No effect at 10 or 12 h (all”, the “Continuous Tracking Task - deviation” value ([2]; at 8 h, all 4 doses) was “No effect at 8 h (all 4” and the “Number of Patients with Any Event” value ([3]; 1.5 mg (n = 71)) was 13 (18.3%). The “Number of Patients with Headache” value ([3]; 1.5 mg (n = 71)) was 3 (4.2%), the “Number of Patients with Somnolence” value ([3]; 1.5 mg (n = 71)) was 2 (2.8%) and the safety and tolerability ([3]; 1.5 mg and 2.5 mg doses) was “safe and well-tolerated”. For the same molecule, the “patient-reported residual sedation effects compared with placebo” value ([3]; 1.5 mg or 2.5 mg) was “no patient-reported residual sedation effects”, the “Number of Patients with Any Event” value ([3]; 2.5 mg (n = 71)) was 18 (25.4%) and the “Number of Patients with Headache” value ([3]; 2.5 mg (n = 71)) was 6 (8.5%). The “Number of Patients with Somnolence” value ([3]; 2.5 mg (n = 71)) was 4 (5.6%), the “total time awake during each hour after dosing” value ([3]; 2.5 mg, each hour except hour 7 (p 0.0577)) was “statistically significant reduction” and the “REM sleep (sleep architecture)” value ([3]; 1.5 and 2.5 mg) was “only a small effect”. For the same molecule, the “slow wave sleep (sleep architecture)” value ([3]; 1.5 and 2.5 mg) was “no impairment”, the “patient reported sleep quality” value ([3]; 1.5 and 2.5 mg doses) was “marked improvement” and the “DSST scores compared with placebo” value ([3]; 9 hours after dose) was “only slightly lower”. The “increase of mean TST compared to placebo” value ([4]; 1.5 mg) was 30.9 min, the “Dizziness, number of subjects (%)” value ([4]; 1.5 mg (n = 53)) was 3 (5.7) and the “Headache, number of subjects (%)” value ([4]; 1.5 mg (n = 53)) was 5 (9.4). The “Somnolence, number of subjects (%)” value ([4]; 1.5 mg (n = 53)) was 1 (1.9), the “Number of subjects with any event (%)” value ([4]; 1.5 mg (n = 53)) was 15 (28.3) and the safety and tolerability ([4]; 1.5 mg and 2.5 mg doses, elderly) was “safe and well-tolerated”. For the same molecule, the sTST [4, 8] was “significant increase”, the sWASO [4, 8] was “significant decrease” and the “subject-reported sleep onset latency” value [4, 8] was “significant reduction”. The “Adjusted mean LPS” value ([4]; 1.5 mg) was 30.5 min, the “Adjusted mean TST” value ([4]; 1.5 mg) was 369.5 min and the “Adjusted mean WASO” value ([4]; 1.5 mg) was 86.2 min. The “LPS % change from placebo” value ([4]; 1.5 mg) was 34%, the “WASO % change from placebo” value ([4]; 1.5 mg) was 15% and the “total wake time hour by hour” value ([4]; 1.5 mg, each hour up to hour 6) was “significantly reduced”. The “TST % change from placebo” value ([4]; 1.5 mg) was 9%, the “WASO in the second half of the night (5-8 hours after lights out)” value ([4]; 2.5 mg) was “significant decrease” and the “increase of mean TST compared to placebo” value ([4]; 2.5 mg) was 56.4 min. The “Dizziness, number of subjects (%)” value ([4]; 2.5 mg (n = 52)) was 5 (9.6), the “Headache, number of subjects (%)” value ([4]; 2.5 mg (n = 52)) was 3 (5.8) and the “Somnolence, number of subjects (%)” value ([4]; 2.5 mg (n = 52)) was 6 (11.5). The “Number of subjects with any event (%)” value ([4]; 2.5 mg (n = 52)) was 19 (36.5), the “Adjusted mean LPS” value ([4]; 2.5 mg) was 26.5 min and the “Adjusted mean TST” value ([4]; 2.5 mg) was 395 min. The “Adjusted mean WASO” value ([4]; 2.5 mg) was 65.3 min, the “LPS % change from placebo” value ([4]; 2.5 mg) was 43% and the “WASO % change from placebo” value ([4]; 2.5 mg) was 36%. The “TWT hour by hour” value ([4]; 2.5 mg, every hour except hour 7) was “significantly reduced”, the “TST % change from placebo” value ([4]; 2.5 mg) was 17% and the “residual sedation, subject reported” value ([4]; 30 minutes post wake time (approximately 9 hours post dose)) was “no residual sedation”. The “KSS (subjective) versus placebo” value ([4]; day 8) was “no significant difference”, the “MSLT average sleep latency over all timepoints (2, 4, 6, 8 & 10 hours post wake time)” value ([4]; day 8, daytime function) was “increased” and the “Benzodiazepine Withdrawal Questionnaire versus placebo” value ([4]; either dose) was “No significant difference”. For the same molecule, the “PVT or RAVLT versus placebo” value ([4]; either dose, day 8) was “no significant differences”, the “sleep architecture (PSG)” value ([4]; human, in vivo) was “generally preserved sleep architecture” and the subjective sleep quality ([4]; over all 7 nights of dosing) was “sustained improvement”.
